Experimental data published in ChEMBL document CHEMBL2203060, “Design, synthesis and biological evaluation of N-arylphenyl-2,2-dichloroacetamide analogues as anti-cancer agents” (Bioorg Med Chem Lett, 2012).

What was measured:
Type in all cases: functional, cell-based
A549 = experiment: Cytotoxicity against human A549 cells after 68 hrs by MTT assay; settings: A549, 68 h
NCI-H460 = experiment: Cytotoxicity against human H460 cells after 68 hrs by MTT assay; settings: NCI-H460, 68 h
[1] = Cytotoxicity against human KB-3-1 cells after 68 hrs by MTT assay; settings: KB 3-1, 68 h

Row | SMILES | IC50 (A549) | IC50 (NCI-H460) | IC50 [1]
1 | O=C(Nc1cccc(-c2cccs2)c1)C(Cl)Cl | 47.6 µM | > 50 µM | > 50 µM
2 | O=C(Nc1cccc(-c2ccccn2)c1)C(Cl)Cl | > 50 µM | > 50 µM | > 50 µM
3 | O=C(Nc1cccc(-c2ccc(C(F)(F)F)cc2)c1)C(Cl)Cl | 23.5 µM | 33.5 µM | > 50 µM
4 | COc1ccccc1-c1cccc(NC(=O)C(Cl)Cl)c1 | 13.1 µM | 40.4 µM | 13.1 µM
5 | O=C(Nc1cccc(-c2ccsc2)c1)C(Cl)Cl | > 50 µM | > 50 µM | > 50 µM
6 | O=C(Nc1cc(-c2ccc(OC3CCCCO3)cc2)cc(-c2ccc(OC3CCCCO3)cc2)c1)C(Cl)Cl (stereo not drawn) | 2.75 µM | 2.42 µM | 7.22 µM
7 | O=C(Nc1cccc(-c2ccoc2)c1)C(Cl)Cl | 8.48 µM | 37.6 µM | > 50 µM
8 | COc1ccc(-c2cc(NC(=O)C(Cl)Cl)cc(-c3ccc(OC)cc3)c2)cc1 | 20.8 µM | > 30 µM | > 30 µM
9 | CCOc1cccc(-c2cc(NC(=O)C(Cl)Cl)cc(-c3cccc(OCC)c3)c2)c1 | 8.83 µM | 4.95 µM | 14.8 µM
10 | O=C(Nc1cccc(-c2nccs2)c1)C(Cl)Cl | > 50 µM | > 50 µM | > 50 µM
11 | CC(C)Oc1ccc(-c2cc(NC(=O)C(Cl)Cl)cc(-c3ccc(OC(C)C)cc3)c2)cc1 | 3.82 µM | 2.86 µM | 8.85 µM
12 | Cc1cccc(-c2cccc(NC(=O)C(Cl)Cl)c2)c1 | 8.7 µM | 24.2 µM | > 50 µM
13 | O=C(Nc1cc(-c2ccc3c(c2)OCO3)cc(-c2ccc3c(c2)OCO3)c1)C(Cl)Cl | 1.73 µM | 1.04 µM | 2.4 µM
14 | COc1cccc(-c2cc(NC(=O)C(Cl)Cl)cc(-c3cccc(OC)c3)c2)c1 | 9.4 µM | > 30 µM | > 30 µM
15 | O=C(Nc1cccc(-c2ccccc2Cl)c1)C(Cl)Cl | 22.6 µM | > 50 µM | > 50 µM
16 | O=C([O-])C(Cl)Cl.[Na+] [SODIUM DICHLOROACETATE] | 4290 µM | 3890 µM | 5880 µM
17 | COc1cccc(-c2cccc(NC(=O)C(Cl)Cl)c2)c1 | 4.31 µM | 33.8 µM | 43.3 µM
18 | CSc1cccc(-c2cc(NC(=O)C(Cl)Cl)cc(-c3cccc(SC)c3)c2)c1 | 15.9 µM | > 30 µM | > 30 µM
19 | O=C(Nc1cccc(-c2cccc(F)c2)c1)C(Cl)Cl | 9.53 µM | > 50 µM | > 50 µM
20 | O=C(Nc1cccc(-c2cccc(C(F)(F)F)c2)c1)C(Cl)Cl | 18.5 µM | 30.2 µM | > 50 µM
21 | COc1cc(F)cc(-c2cc(NC(=O)C(Cl)Cl)cc(-c3cc(F)cc(OC)c3)c2)c1 | 8.99 µM | 2.9 µM | 5.99 µM

Row | SMILES | IC50 (A549) | IC50 (NCI-H460) | IC50 [1]
22 | O=C(Nc1cccc(-c2cccc(Cl)c2)c1)C(Cl)Cl | 21.4 µM | > 50 µM | > 50 µM
23 | Nc1cccc(-c2cccc(NC(=O)C(Cl)Cl)c2)c1 | > 50 µM | > 50 µM | 26.1 µM
24 | CSc1ccccc1-c1cc(NC(=O)C(Cl)Cl)cc(-c2ccccc2SC)c1 | 6.51 µM | > 30 µM | > 30 µM
25 | O=C(Nc1cccc(-c2ccc(-c3ccccc3)cc2)c1)C(Cl)Cl | > 50 µM | 10.9 µM | > 50 µM
26 | CC(C)c1ccc(-c2cc(NC(=O)C(Cl)Cl)cc(-c3ccc(C(C)C)cc3)c2)cc1 | 17.4 µM | 24.8 µM | > 30 µM
27 | O=C(Nc1cccc(-c2ccc(F)cc2)c1)C(Cl)Cl | 7.84 µM | > 50 µM | 26.2 µM
28 | O=C(Nc1cccc(-c2cccc(NC(=O)C(Cl)Cl)c2)c1)C(Cl)Cl | 47.9 µM | > 50 µM | > 50 µM
29 | Cc1ccc(-c2cccc(NC(=O)C(Cl)Cl)c2)cc1 | 8.3 µM | 8 µM | > 50 µM
30 | COC(=O)c1ccc(-c2cccc(NC(=O)C(Cl)Cl)c2)cc1 | > 50 µM | > 50 µM | > 50 µM
31 | O=C(Nc1cccc(-c2ccccc2F)c1)C(Cl)Cl | 13.2 µM | 26.8 µM | 48.3 µM
32 | CCOc1ccc(-c2cc(NC(=O)C(Cl)Cl)cc(-c3ccc(OCC)cc3)c2)cc1 | 8.05 µM | 6.08 µM | 23.9 µM
33 | CCOc1ccccc1-c1cc(NC(=O)C(Cl)Cl)cc(-c2ccccc2OCC)c1 | 7.28 µM | 5.09 µM | 8.73 µM
34 | CSc1ccc(-c2cc(NC(=O)C(Cl)Cl)cc(-c3ccc(SC)cc3)c2)cc1 | 22.3 µM | > 30 µM | > 30 µM
35 | Cc1ccccc1-c1cccc(NC(=O)C(Cl)Cl)c1 | 9.86 µM | 31.6 µM | 42 µM
36 | COc1ccccc1-c1cc(NC(=O)C(Cl)Cl)cc(-c2ccccc2OC)c1 | 25.5 µM | > 30 µM | > 30 µM
37 | COc1ccc(-c2cc(NC(=O)C(Cl)Cl)cc(-c3ccc(OC)c(F)c3)c2)cc1F | 1.95 µM | 1.76 µM | 2.94 µM
38 | COc1ccc(-c2cccc(NC(=O)C(Cl)Cl)c2)cc1 | 8.53 µM | 43.3 µM | > 50 µM
39 | O=C(Nc1cccc(-c2ccc(Cl)cc2)c1)C(Cl)Cl | 36.2 µM | > 50 µM | 38.2 µM
40 | O=C(Nc1cccc(-c2ccccc2)c1)C(Cl)Cl | 8.9 µM | 20.2 µM | 46.8 µM
41 | O=C(Nc1cccc(-c2ccccc2C(F)(F)F)c1)C(Cl)Cl | 7.5 µM | 7.55 µM | 35.9 µM
